Data set [1] can be described thus: The drug is tested on Ruminococcus torques strain: ATCC27756 for biotransformation. The drug concentrations were measured before and after a 12-h incubation by liquid-chromatography-coupled mass spectrometry (LC–MS). Format: ADME. As to conditions: 2 µM. More on the design: dose 2 uM, timepoint 0 vs 12 hours.
For data set [2] the following is noted: roseburia intestinalis, 12 h, 2 µM.
Description: The drug is tested on Roseburia intestinalis strain: L1-82 for biotransformation. The drug concentrations were measured before and after a 12-h incubation by liquid-chromatography-coupled mass spectrometry (LC–MS)
The nature of data set [3]: The drug is tested on Bifidobacterium ruminantium strain: fecal isolate for biotransformation. The drug concentrations were measured before and after a 12-h incubation by liquid-chromatography-coupled mass spectrometry (LC–MS). As to conditions: 2 µM.
Data set [4] in a line: The drug is tested on Clostridium sp. strain: fecal isolate for biotransformation. The drug concentrations were measured before and after a 12-h incubation by liquid-chromatography-coupled mass spectrometry (LC–MS). The conditions noted are these: 2 µM.
A short description of data set [5]: The drug is tested on Eubacterium ventriosum strain: ATCC27560 for biotransformation. The drug concentrations were measured before and after a 12-h incubation by liquid-chromatography-coupled mass spectrometry (LC–MS). The format is ADME. Further details: dose 2 uM, timepoint 0 vs 12 hours. The conditions noted are these: 2 µM.
For data set [6] the following is noted: bacteroides fragilis, 12 h, 2 µM.
Description: The drug is tested on Bacteroides fragilis strain: 3397 (T10) for biotransformation. The drug concentrations were measured before and after a 12-h incubation by liquid-chromatography-coupled mass spectrometry (LC–MS)
Data set [7] can be described thus: The drug is tested on Bacteroides ovatus strain: ATCC8483 for biotransformation. The drug concentrations were measured before and after a 12-h incubation by liquid-chromatography-coupled mass spectrometry (LC–MS). The conditions noted are these: 2 µM.
Data set [8] is described as follows: The drug is tested on Ruminococcus lactaris strain: ATCC29176 for biotransformation. The drug concentrations were measured before and after a 12-h incubation by liquid-chromatography-coupled mass spectrometry (LC–MS). The conditions noted are these: 2 µM.
The conditions of data set [9]: bifidobacterium adolescentis, 12 h, 2 µM.
Description: The drug is tested on Bifidobacterium adolescentis strain: ATCC 15703 for biotransformation. The drug concentrations were measured before and after a 12-h incubation by liquid-chromatography-coupled mass spectrometry (LC–MS)
Data set [10] is described as follows: The drug is tested on Blautia luti strain: DSM14534 for biotransformation. The drug concentrations were measured before and after a 12-h incubation by liquid-chromatography-coupled mass spectrometry (LC–MS). The format is ADME. More on the design: dose 2 uM, timepoint 0 vs 12 hours. The conditions noted are these: 2 µM.
Data set [11] is described as follows: The drug is tested on Clostridium sporogenes strain: ATCC15579 for biotransformation. The drug concentrations were measured before and after a 12-h incubation by liquid-chromatography-coupled mass spectrometry (LC–MS). As to conditions: 2 µM.
Data set [12] is described as follows: The drug is tested on Bifidobacterium breve strain: DSM20213 for biotransformation. The drug concentrations were measured before and after a 12-h incubation by liquid-chromatography-coupled mass spectrometry (LC–MS). As to conditions: 2 µM.
Data set [13] is described as follows: The drug is tested on Bifidobacterium longum subsp. Infantis strain: CCUG52486 for biotransformation. The drug concentrations were measured before and after a 12-h incubation by liquid-chromatography-coupled mass spectrometry (LC–MS). The conditions noted are these: 2 µM.
Data set [14] in a line: The drug is tested on Collinsella aerofaciens strain: ATCC25986 for biotransformation. The drug concentrations were measured before and after a 12-h incubation by liquid-chromatography-coupled mass spectrometry (LC–MS). As to conditions: 2 µM.
Data set [15] is described as follows: The drug is tested on Eubacterium hallii strain: DSM3353 for biotransformation. The drug concentrations were measured before and after a 12-h incubation by liquid-chromatography-coupled mass spectrometry (LC–MS). The conditions noted are these: anaerobutyricum hallii, 2 µM.
The nature of data set [16]: The drug is tested on Clostridium scindens strain: ATCC35704 for biotransformation. The drug concentrations were measured before and after a 12-h incubation by liquid-chromatography-coupled mass spectrometry (LC–MS). The conditions noted are these: 2 µM.
For data set [17] the following is noted: bacteroides fragilis, 12 h, 2 µM. The source holds these as a separate data set.
Description: The drug is tested on Bacteroides fragilis strain: NCTC 9343 for biotransformation. The drug concentrations were measured before and after a 12-h incubation by liquid-chromatography-coupled mass spectrometry (LC–MS)
For data set [18] the following is noted: bacteroides thetaiotaomicron, 12 h, 2 µM.
Description: The drug is tested on Bacteroides thetaiotaomicron strain: 3731 for biotransformation. The drug concentrations were measured before and after a 12-h incubation by liquid-chromatography-coupled mass spectrometry (LC–MS)
Data set [19] can be described thus: The drug is tested on Bacteroides dorei strain: DSM17855 for biotransformation. The drug concentrations were measured before and after a 12-h incubation by liquid-chromatography-coupled mass spectrometry (LC–MS). The conditions noted are these: phocaeicola dorei, 2 µM.

For `CC1=C(CC(=O)O)c2cc(F)ccc2/C1=C\c1ccc([S+](C)[O-])cc1` (stereo not drawn), the “Bacterial Biotransformation” value in [1], in data set [2], in data set [3], in data set [4], in data set [5] and in data set [6] was “Compound NOT metabolized” in each case. Further, the “Bacterial Biotransformation” value in data set [7], in [8], in data set [9], in data set [10], in [11] and in data set [12] was “Compound NOT metabolized” throughout. The “Bacterial Biotransformation” value in data set [13], in [14], in [15], in data set [16], in [17] and in data set [18] was “Compound NOT metabolized” each time. In data set [19], the “Bacterial Biotransformation” value is “Compound NOT metabolized”.
With `Nc1nc2ccc(OC(F)(F)F)cc2s1` [RILUZOLE], the “Bacterial Biotransformation” value is listed as “Compound NOT metabolized” in data set [2]; “Compound metabolized” in [3]; “Compound metabolized” in [4]; “Compound NOT metabolized” in [6]; “Compound NOT metabolized” in data set [7]; “Compound NOT metabolized” in data set [8]. In addition, the “Bacterial Biotransformation” value in data set [9], in data set [11], in data set [12], in data set [13], in data set [14] and in data set [15] was “Compound NOT metabolized” each time. Moreover, the “Bacterial Biotransformation” value in data set [16] was “Compound NOT metabolized”; in [17], “Compound NOT metabolized”; in data set [18], “Compound NOT metabolized”; in data set [19], “Compound metabolized”.
In the case of `C[C@@H](c1ncncc1F)[C@](O)(Cn1cncn1)c1ccc(F)cc1F` [VORICONAZOLE], the “Bacterial Biotransformation” value in data set [1] is reported as “Compound NOT metabolized”; in data set [2], “Compound NOT metabolized”; in [3], “Compound NOT metabolized”; in [4], “Compound NOT metabolized”; in [5], “Compound NOT metabolized”; in data set [6] it was “Compound metabolized”. In addition, the “Bacterial Biotransformation” value in [7], in data set [8], in [9], in data set [10], in [11] and in data set [12] was “Compound NOT metabolized” each time. Also, the “Bacterial Biotransformation” value in data set [13] is listed as “Compound NOT metabolized”; in [14], “Compound NOT metabolized”; in [15], “Compound NOT metabolized”; in [16] it was “Compound NOT metabolized”; in [17], “Compound NOT metabolized”; in data set [19] it was “Compound metabolized”.
